For experiment [1], the target named is Phosphodiesterase 6. The experiment in a line: Inhibition of human phosphodiesterase 6. Type of experiment: protein assay.
Experiment [2] deals with High affinity cGMP-specific 3',5'-cyclic phosphodiesterase 9A (Homo sapiens, UniProt O76083). The experiment in a line: Inhibition of human phosphodiesterase 9.
For experiment [3], the target named is cAMP and cAMP-inhibited cGMP 3',5'-cyclic phosphodiesterase 10A (Homo sapiens, UniProt Q9Y233). The experiment is described as follows: Inhibitory concentration value against phosphodiesterase 10.
Chain of cAMP and cAMP-inhibited cGMP 3',5'-cyclic phosphodiesterase 10A (Q9Y233 whole entry): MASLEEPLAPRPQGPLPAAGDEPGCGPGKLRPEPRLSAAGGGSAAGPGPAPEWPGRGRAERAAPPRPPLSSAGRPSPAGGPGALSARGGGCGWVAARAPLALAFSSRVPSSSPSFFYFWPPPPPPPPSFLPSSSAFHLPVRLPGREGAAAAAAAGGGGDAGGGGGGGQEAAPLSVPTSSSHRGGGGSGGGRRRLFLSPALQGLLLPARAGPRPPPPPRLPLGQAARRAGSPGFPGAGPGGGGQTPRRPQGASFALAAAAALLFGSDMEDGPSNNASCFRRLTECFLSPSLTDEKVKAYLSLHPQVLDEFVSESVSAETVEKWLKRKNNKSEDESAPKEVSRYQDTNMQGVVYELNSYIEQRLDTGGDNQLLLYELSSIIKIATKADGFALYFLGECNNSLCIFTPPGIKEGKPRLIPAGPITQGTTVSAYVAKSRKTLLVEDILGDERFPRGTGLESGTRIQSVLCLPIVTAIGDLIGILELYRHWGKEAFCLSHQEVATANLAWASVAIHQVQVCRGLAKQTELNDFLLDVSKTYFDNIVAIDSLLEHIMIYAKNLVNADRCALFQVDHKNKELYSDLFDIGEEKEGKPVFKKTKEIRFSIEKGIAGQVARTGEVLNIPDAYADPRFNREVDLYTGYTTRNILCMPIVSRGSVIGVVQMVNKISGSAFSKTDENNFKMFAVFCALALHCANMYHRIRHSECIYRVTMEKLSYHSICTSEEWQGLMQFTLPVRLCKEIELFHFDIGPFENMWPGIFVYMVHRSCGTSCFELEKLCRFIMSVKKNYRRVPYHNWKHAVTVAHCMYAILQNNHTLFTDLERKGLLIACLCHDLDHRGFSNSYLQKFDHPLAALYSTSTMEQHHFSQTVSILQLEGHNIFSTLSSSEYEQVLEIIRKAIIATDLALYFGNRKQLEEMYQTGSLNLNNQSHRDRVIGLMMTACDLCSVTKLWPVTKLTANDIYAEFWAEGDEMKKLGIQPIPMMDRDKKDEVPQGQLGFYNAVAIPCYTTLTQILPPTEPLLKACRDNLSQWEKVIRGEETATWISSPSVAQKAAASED
Experiment [4] has as its target Phosphodiesterase 1 (Homo sapiens, UniProt P54750+Q01064+Q14123). The experiment in a line: Inhibition of human phosphodiesterase 1. It is filed as protein assay.
Experiment [5] concerns the target T1, Phosphodiesterase 7 (Homo sapiens, UniProt Q13946+Q9NP56). The experiment is described as follows: (§1) Inhibition of human phosphodiesterase 7. Type of experiment: protein assay.
In experiment [6] the target is cGMP-dependent 3',5'-cyclic phosphodiesterase (Homo sapiens, UniProt O00408). The experiment is described as follows: Inhibition of human phosphodiesterase 2.
Chain of cGMP-dependent 3',5'-cyclic phosphodiesterase (O00408 whole entry): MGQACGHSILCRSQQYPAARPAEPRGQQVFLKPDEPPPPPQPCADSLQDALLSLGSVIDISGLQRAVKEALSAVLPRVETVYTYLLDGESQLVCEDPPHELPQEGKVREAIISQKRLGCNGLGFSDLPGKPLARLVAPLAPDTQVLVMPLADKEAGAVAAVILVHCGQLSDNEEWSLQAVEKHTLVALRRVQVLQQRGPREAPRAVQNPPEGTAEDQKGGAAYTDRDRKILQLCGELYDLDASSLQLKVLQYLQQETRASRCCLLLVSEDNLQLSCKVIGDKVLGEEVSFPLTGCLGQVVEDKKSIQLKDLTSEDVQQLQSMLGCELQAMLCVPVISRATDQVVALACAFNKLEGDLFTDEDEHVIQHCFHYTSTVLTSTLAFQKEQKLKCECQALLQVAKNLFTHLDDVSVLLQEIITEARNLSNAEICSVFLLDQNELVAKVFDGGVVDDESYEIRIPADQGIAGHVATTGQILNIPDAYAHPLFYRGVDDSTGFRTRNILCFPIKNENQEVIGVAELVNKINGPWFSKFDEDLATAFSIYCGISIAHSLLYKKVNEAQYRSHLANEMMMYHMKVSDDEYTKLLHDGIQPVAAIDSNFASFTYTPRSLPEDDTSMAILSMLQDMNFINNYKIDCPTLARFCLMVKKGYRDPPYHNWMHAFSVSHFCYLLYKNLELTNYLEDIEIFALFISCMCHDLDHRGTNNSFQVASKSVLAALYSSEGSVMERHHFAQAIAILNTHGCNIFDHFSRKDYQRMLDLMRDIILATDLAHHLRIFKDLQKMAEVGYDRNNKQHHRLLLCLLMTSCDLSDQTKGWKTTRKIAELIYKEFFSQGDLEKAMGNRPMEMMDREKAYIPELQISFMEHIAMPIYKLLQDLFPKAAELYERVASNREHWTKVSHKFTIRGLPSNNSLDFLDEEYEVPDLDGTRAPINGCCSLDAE
In experiment [7] the target is T1, Phosphodiesterase 7. The description is as §1. It is filed as protein assay. This is another data set of the same source.
The nature of experiment [8]: Inhibitory activity against phosphodiesterase 8.

The values that follow come from ChEMBL document CHEMBL1139500, “The next generation of phosphodiesterase inhibitors: structural clues to ligand and substrate selectivity of phosphodiesterases” (J Med Chem, 2005).

Usually Ki stands for the dissociation constant of the complex between target and ligand, obtained from inhibition or displacement. A higher Ki goes with a looser hold on the target. As usually defined, the pKi is the negative decadic logarithm of the Ki, by convention in mol/L. A lower pKi goes with a large Ki. By pIC50 is commonly meant the negative decadic logarithm of the IC50, by convention in mol/L. Lower therefore signals a large IC50.

pIC50, pKi: −log10 of the molar value.

T1 sequence (Q13946 whole entry, looked up): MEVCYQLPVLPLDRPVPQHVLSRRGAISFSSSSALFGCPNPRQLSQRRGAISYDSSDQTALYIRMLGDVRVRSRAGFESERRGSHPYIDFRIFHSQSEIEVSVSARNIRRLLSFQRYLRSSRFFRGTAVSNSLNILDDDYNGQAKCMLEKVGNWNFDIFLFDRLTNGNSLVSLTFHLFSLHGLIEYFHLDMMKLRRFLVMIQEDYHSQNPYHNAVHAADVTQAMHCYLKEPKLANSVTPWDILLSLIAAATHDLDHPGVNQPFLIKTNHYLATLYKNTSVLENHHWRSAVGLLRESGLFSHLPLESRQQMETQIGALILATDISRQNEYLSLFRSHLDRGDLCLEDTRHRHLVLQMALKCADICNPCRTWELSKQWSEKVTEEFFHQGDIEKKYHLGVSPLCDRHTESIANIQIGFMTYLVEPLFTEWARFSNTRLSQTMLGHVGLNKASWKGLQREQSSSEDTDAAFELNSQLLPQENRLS
T1 sequence (Q9NP56 whole entry, looked up): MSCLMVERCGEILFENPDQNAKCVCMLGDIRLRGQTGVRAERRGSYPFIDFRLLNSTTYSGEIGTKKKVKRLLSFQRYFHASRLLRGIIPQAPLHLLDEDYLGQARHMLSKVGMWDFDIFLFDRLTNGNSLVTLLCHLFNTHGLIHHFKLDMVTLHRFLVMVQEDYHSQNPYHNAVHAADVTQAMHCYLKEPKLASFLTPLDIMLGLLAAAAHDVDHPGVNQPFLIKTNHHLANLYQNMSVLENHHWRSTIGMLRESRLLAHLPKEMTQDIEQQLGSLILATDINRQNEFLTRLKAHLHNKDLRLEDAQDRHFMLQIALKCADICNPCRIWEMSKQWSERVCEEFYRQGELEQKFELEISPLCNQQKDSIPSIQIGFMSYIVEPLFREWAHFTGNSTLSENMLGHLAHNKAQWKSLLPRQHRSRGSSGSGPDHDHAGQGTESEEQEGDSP
Chain of High affinity cGMP-specific 3',5'-cyclic phosphodiesterase 9A (O76083 whole entry): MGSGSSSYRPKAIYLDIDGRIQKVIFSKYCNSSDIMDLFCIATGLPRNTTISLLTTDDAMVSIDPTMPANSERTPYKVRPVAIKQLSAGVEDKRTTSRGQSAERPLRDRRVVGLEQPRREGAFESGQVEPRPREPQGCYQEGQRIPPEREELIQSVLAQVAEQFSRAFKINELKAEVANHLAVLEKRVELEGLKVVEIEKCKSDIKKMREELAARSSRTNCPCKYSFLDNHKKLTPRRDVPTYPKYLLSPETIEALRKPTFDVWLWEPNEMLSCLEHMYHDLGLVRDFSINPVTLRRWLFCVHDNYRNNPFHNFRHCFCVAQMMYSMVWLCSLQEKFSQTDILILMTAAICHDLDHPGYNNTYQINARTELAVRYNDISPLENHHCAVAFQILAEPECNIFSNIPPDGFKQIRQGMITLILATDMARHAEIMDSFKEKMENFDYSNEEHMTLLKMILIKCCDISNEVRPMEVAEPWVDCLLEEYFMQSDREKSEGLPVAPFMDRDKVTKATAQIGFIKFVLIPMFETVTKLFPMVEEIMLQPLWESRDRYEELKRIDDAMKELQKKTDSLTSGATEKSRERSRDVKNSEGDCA

As to `CCCOc1ccccc1-c1nc2[nH]nnc2c(=O)[nH]1` [ZAPRINAST], the Ki in experiment [1] was 0.4 µM. This compound also gave a pKi in experiment [2] of 4.46. This compound also had a pIC50 in experiment [3] of 4.66. `CCOC(=O)C1=C[C@]2(CC)CCCN3CCc4c(n1c1ccccc41)[C@@H]32` [VINPOCETINE] displayed a Ki in experiment [4] of 14 µM. Take `CC(C)Cn1c(=O)n(C)c(=O)c2nc[nH]c21` [ISOBUTYLMETHYLXANTHINE]: in experiment [5], the Ki was found to be 4 µM. `CCCCCC[C@@H]([C@@H](C)O)n1cnc2c(N)ncnc21` [EHNA]: the pKi in experiment [6] is 6.00. The compound `Cc1nc(N)c2ccc(-c3nn(C)/c(=N/C4CCCCC4)s3)cc2n1` had an Inhibition in experiment [7] of 3.9 µM. The compound `Cn1nc(-c2ccc(Cl)cc2)s/c1=N\C1CCCCC1` yielded an Inhibition in experiment [7] of 1.5 µM. With `OCCN(CCO)c1nc(N2CCCCC2)c2nc(N(CCO)CCO)nc(N3CCCCC3)c2n1` [DIPYRIDAMOLE], the Ki came to 0.125 µM in experiment [1] and 0.6 µM in experiment [5]. For the same compound, the pKi in experiment [8] is 5.05.
